Reference: patent US7919471B2, “Method of modulating cell survival and reagents useful for same” (The University of Queensland, priority 1998, dated 2011)
Where no end group is shown, it is not given here.

Tests used:
[1] = test system: membrane bound c35; test: Protection by soluble c35 / 29mer against death signalling from membrane-bound c35; type: cell-based; conditions: for protection against membrane-linked, expressed c35: FIG. 7, microinjection of sptc35, peptide 30 minutes later
Experimental: FIG. 7 is a graphical representation showing protection of membrane-bound killing-domain by a soluble 35 amino acid peptide and a soluble 29 amino acid peptide. The cells were subjected to microinjection of sptc35 or GFP followed 30 minutes later by either peptide c35 or the 29mer peptide.

[2] = test system: p75^NTR-mediated death; test: Modulation of p75NTR-induced killing of microinjected DRG neurons by co-expressed proteins, antisense or caspase inhibitors; type: cell-based, mouse; conditions: for p75^NTR-mediated (induced) neural death: neurons over-expressing p75^NTR, in LIF, agent present or co-expressed
From the text: The inventors hypothesised that the free cytoplasmic expressed 35 amino acid domain might be able to interfere with death signalling from full length p75^NTR proteins by a dominant-negative mechanism, and attempted to inhibit the death by co-expressing the proteins. Given the results presented below regarding the ability of overexpression of Bcl-2 to enhance p75^NTR killing, this paradigm was used to test the ability of the c35 protein to inhibit death signalling.
As the inventors had shown that the death of dorsal root ganglia (DRG) sensory neurons in vitro and in vivo, was, at least in part, mediated by p75^NTR, p75^NTR was over-expressed in these cells by microinjecting rat p75^NTR cDNA expressing plasmid into the nucleus of mouse sensory neurons. These were cultured in the presence of the LIF to prevent neural death not linked to p75^NTR mechanisms. […] The injected neurons were observed over a 48 hour period and the viability was assessed. […] This was expected since the cytoplasmic tail contains a sequence with homology to the Fas/TNFR “death domain” [9].
The Bcl-2 family of proteins is involved in mediating apoptotic signalling pathways, and can homodimerise or heterodimerise with other family members. Bcl-2 and Bcl-xL are well characterised inhibitors of stress-induced apoptosis, JNK activation and neural death due to growth-factor limitation. However, both are poor inhibitors of Fas and TNFR mediated opoptosis. As it had been shown previously that high levels of Bcl-2 or Bcl-xL blocked neural cell death in a variety of models, the inventors examined whether over-expression of these proteins could block the death induced by p75^NTR.
The inventors tested, therefore, whether high endogenous Bcl-2 levels might be necessary for successful p75^NTR-mediated killing in normal neurons by assaying p75^NTR killing in Bcl-2 depleted cells. Endogenous Bcl-2 was down regulated by antisense as previously described.
To investigate whether the p75^NTR-Bcl-2 death-signalling cascade was dependent on caspase activation, inhibitors of caspases were employed.

[3] = test system: dorsal root ganglia (DRG) sensory neurons; test: Microinjection of plasmid expression constructs into DRG neurons cultured in LIF; survival of injected neurons; type: cell-based, mouse; conditions: microinjected DRG neurons cultured in LIF
Experimental: In order to investigate how p75^NTR signals neural death, the inventors devised a robust in vitro assay for p75^NTR induced death. Plasmid expression constructs were microinjected into individual neurons in the presence of the growth factor LIF, and the survival of the neurons expressing the different plasmids was determined. A series of plasmid constructs which encode incomplete p75^NTR proteins were made (see FIG. 1) and the ability of each protein to signal death when over expressed was assessed.
To further investigate the domain required for death signalling the inventors made constructs expressing p75^NTR proteins deleted for the extracellular domain or the extracellular and transmembrane domains. Proteins without extracellular domains retain the signal peptide which is responsible for correctly transporting the protein into the cell membrane. Proteins without transmembrane domains are expressed free in the cytoplasm of the cell and are epitope tagged with a FLAG motif for detection.
As the inventors had shown that the death of dorsal root ganglia (DRG) sensory neurons in vitro and in vivo, was, at least in part, mediated by p75^NTR, p75^NTR was over-expressed in these cells by microinjecting rat p75^NTR cDNA expressing plasmid into the nucleus of mouse sensory neurons. […] The injected neurons were observed over a 48 hour period and the viability was assessed. […]

[4] = test system: neurons; test: Neural death after growth factor withdrawal with Bcl-2 over-expression; type: cell-based, mouse
From the text: Thus, at the same expression levels in the same neural population, Bcl-2 was able to prevent or enhance neural cell death depending on the nature of the death signal.

[5] = test system: Schwann cells; test: Protection of Schwann cells against NGF-induced death; type: cell-based; conditions: expressed from a genetic construct
[6] = test system: cells; test: Cell death mediated by palmitoylated (membrane-linked) peptides; type: cell-based; conditions: FIG. 8
Experimental: FIG. 8 is a graphical representation showing that peptide 29 which has a palmitoyl group at the membrane (amino) end and which facilitates association with the membrane mediates to cell death. […] F, Fluoro tagged; pen, penetratin.
Cells were treated with 2 μM peptide for 1-2 hours then washed. pen, penetratin, F29, 29 mer; Palm, palmitoylation. • ? pen F29 • ? pen F29 Palm • ? pen gp130 Palm • ? pen
The palmitoylation links the peptide to the plasma membrane. This membrane-linked 29mer leads to cell death whereas its soluble form protects cells against p75^NTR-mediated death signalling.
Cells were washed with peptide (2 μM) for approximately 110 minutes and the cells were then washed. Controls included penetratin-fused 29 mer, palmitoylated penetratin-fused 29 mer palmitoylated penetratin-fused gp130 and penetratin alone.

29mer: truncated form of the 35mer; six amino acids deleted from the C-terminal end (SEQ ID NO:12) (KRWNSCKQNKQGANSRPVNQTPPPEGEKL; listed as Rattus norvegicus)
protection against membrane-linked, expressed c35 [1]: also protected against membrane-bound c35

Bcl-2 W188A protein: Bcl-2 protein with inactivating point mutation W188A in the BH2 domain
p75^NTR-mediated (induced) neural death [2]: protected neurons from any p75^NTR-induced death

Bcl-2: over-expressed wildtype Bcl-2 protein
neural death / survival after expression of the construct alone [3]: had no effect on cell survival
neural death induced by NGF withdrawal [4]: able to protect against neural death induced by NGF withdrawal
p75^NTR-mediated (induced) neural death [2]: induced a significant increase in neural death

G145E: Bcl-2 protein with inactivating point mutation G145E in the BH1 domain
p75^NTR-mediated (induced) neural death [2]: enhanced killing effect seen with Bcl-2 coexpression was abrogated

c35 protein: free cytoplasmic 35 amino acid p75NTR domain expressed from a plasmid, not membrane associated, FLAG tagged (KRWNSCKQNKQGANSRPVNQTPPPEGEKLHSDSGI; also: FLAG tagged, end not given here; listed as Rattus norvegicus)
neural death / survival after expression of the construct alone [3]: ability of the domain to induce death is removed
protection against membrane bound c35 ([1]; expressed in soluble form): can also protect cells against membrane bound c35
killing induced by co-expression of p75^NTR and Bcl-2 ([2]; co-expression in DRG neurons (FIG. 5)): able to inhibit this killing
protection of Schwann cells against NGF-induced death [5]: protected Schwann cells against NGF-induced death

soluble c35: 35 amino acid domain of p75NTR juxtaposed to the membrane, in soluble form (SEQ ID NO:8) (KRWNSCKQNKQGANSRPVNQTPPPEGEKLHSDSGI; listed as Rattus norvegicus)
protection from death signalling by membrane bound c35 ([1]; FIG. 6): protects cells from death signalling in a dose-dependent manner
protection against membrane-linked, expressed c35 [1]: can also protect against membrane-linked, expressed c35
cell death / protection [6]: tends to protect the cells

z-VAD [reference compound]
p75^NTR-mediated (induced) neural death [2]: significantly reduced
